Patent US20240294541A1, “COMPOUNDS CONSTITUTING C20-MODIFIED SALINOMYCIN DERIVATIVES, A METHOD FOR OBTAINING THE SAME, A COMPOSITION CONTAINING THE SAME AND A USE OF SAID COMPOUNDS” (FILECLO SPOLKA Z OGRANICZONA ODPOWIEDZIALNOSCIA, priority 2021, published 2024)
Like-named read-outs stand apart in the source and are kept apart here.

What was measured:
Format in all cases: cell-based
[1] = tested on: A2780Cis (cisplatin-resistant human ovarian cancer); experiment: In vitro cytotoxicity, SRB assay, A2780Cis; conditions: for IC50: Homo sapiens, A2780cis
Hs294T (human melanoma) = experiment: cells; conditions: for IC50: Hs 294T; for SI Hs294T: selectivity coefficient vs normal BALB/3T3 fibroblasts; for Hs294T SI: selectivity coefficient vs normal BALB/3T3 cells
[2] = tested on: PLC/PRF/5 (human liver cancer); experiment: cells; conditions: for SI PLC/PRF/5: selectivity coefficient vs normal BALB/3T3 fibroblasts; for PLC/PRF/5 SI: selectivity coefficient vs normal BALB/3T3 cells
[3] = tested on: SNU-16 (human gastric cancer); experiment: cells; conditions: for SI SNU-16: selectivity coefficient vs normal BALB/3T3 fibroblasts; for SNU-16 SI: selectivity coefficient vs normal BALB/3T3 cells
[4] = tested on: MIA PaCa-2 (human pancreatic cancer); experiment: cells; conditions: for SI MIA PaCa-2: selectivity coefficient vs normal BALB/3T3 fibroblasts; for MIA PaCa-2 SI: selectivity coefficient vs normal BALB/3T3 cells
[5] = tested on: BALB/3T3 (normal mouse fibroblasts); experiment: In vitro cytotoxicity, SRB assay, normal BALB/3T3 fibroblasts
[6] = tested on: MV-4-11 (human biphenotypic leukaemia); experiment: In vitro cytotoxicity, MTT assay, MV-4-11; conditions: for IC50: Homo sapiens, MV4-11, read-out: IC50 (nM) MV4-11
[7] = tested on: NCI-H358 (human lung cancer); experiment: cells; conditions: Table 4; for IC50: NCI-H358 human lung cancer cells, read-out: IC50 (nM) NCI-H358; for SI NCI-H358: selectivity coefficient vs normal BALB/3T3 fibroblasts
cancer cells = experiment: In vitro cytotoxic activity on the panel of cancer cell lines (MTT/SRB), general statements; conditions: Tables 3.1, 3.2, 4 and 5; parent compound salinomycin
[8] = tested on: NCI-H23 (human lung cancer); experiment: In vitro cytotoxicity, SRB assay, NCI-H23; conditions: for IC50: Homo sapiens; for NCI-H23 SI: selectivity coefficient vs normal BALB/3T3 cells
[9] = tested on: PFSK-1 (malignant primitive neuroectodermal tumour); experiment: In vitro cytotoxicity, SRB assay, PFSK-1; conditions: for IC50: Homo sapiens; for PFSK-1 SI: selectivity coefficient vs normal BALB/3T3 cells
[10] = tested on: A2780 (human ovarian cancer); experiment: In vitro cytotoxicity, SRB assay, A2780; conditions: for IC50: Homo sapiens; for A2780 SI: selectivity coefficient vs normal BALB/3T3 cells
A375 (human melanoma) = experiment: In vitro cytotoxicity, SRB assay, A375; conditions: for IC50: Homo sapiens; for A375 SI: selectivity coefficient vs normal BALB/3T3 cells
[11] = tested on: KG-1 (human acute myeloid leukaemia); experiment: In vitro cytotoxicity, MTT assay, KG-1; conditions: for IC50: Homo sapiens, 72 h with compound, MTT, n/a = non-active compound; for KG-1 SI: selectivity coefficient vs normal BALB/3T3 cells
[12] = Table 4, Hs294T human melanoma cells, read-out: IC50 (nM) Hs294T
[13] = Table 4, PLC/PRF/5 human liver cancer cells, read-out: IC50 (nM) PLC/PRF/5
[14] = Table 4, SNU-16 human gastric cancer cells, read-out: IC50 (nM) SNU-16
[15] = Table 4, MIA PaCa-2 human pancreatic cancer cells, read-out: IC50 (nM) MIA PaCa-2
[16] = Table 4, BALB/3T3 normal mouse fibroblasts, read-out: IC50 (nM) BALB3T3 normal cells
[17] = NCI-H23, 72 h with compound, SRB, n/a = non-active compound, read-out: NCI-H23 IC50
[18] = PFSK-1, 72 h with compound, SRB, n/a = non-active compound, read-out: PFSK-1 IC50
[19] = A2780, 72 h with compound, SRB, n/a = non-active compound, read-out: A2780 IC50
[20] = 72 h, read-out: A2780Cis IC50 (nM)
[21] = A-375, 72 h with compound, SRB, n/a = non-active compound, read-out: A375 IC50
[22] = Homo sapiens, 72 h with compound, SRB, n/a = non-active compound, read-out: Hs294T IC50
[23] = Homo sapiens, PLC-PRF-5, 72 h with compound, SRB, n/a = non-active compound, read-out: PLC/PRF/5 IC50
[24] = Homo sapiens, SNU-16, 72 h with compound, MTT, n/a = non-active compound, read-out: SNU-16 IC50
[25] = Homo sapiens, MIA PaCa-2, 72 h with compound, SRB, n/a = non-active compound, read-out: MIA PaCa-2 IC50
[26] = Mus musculus, BALB/3T3, normal cells, 72 h with compound, SRB, n/a = non-active compound, read-out: BALB/3T3 IC50

| Structure (SMILES) | IC50 (Hs294T (human melanoma); [12]) [nM] | IC50 [2, 13] [nM] | IC50 [3, 14] [nM] | IC50 [4, 15] [nM] | IC50 [7] [nM] | anti-proliferative effect compared to that of the parent compound (cancer cells) | NCI-H23 SI [8] | PFSK-1 SI [9] | A2780 SI [10] | A2780Cis RI [1] | A2780Cis SI [1] | IC50 [1, 20] [nM] | A375 SI (A375 (human melanoma)) | IC50 (Hs294T (human melanoma); [22]) [nM] | Hs294T SI (Hs294T (human melanoma)) | IC50 [2, 23] [nM] | PLC/PRF/5 SI [2] | IC50 [3, 24] [nM] | SNU-16 SI [3] | IC50 [11] [nM] | also measured |
| --- | --- | --- | --- | --- | --- | --- | --- | --- | --- | --- | --- | --- | --- | --- | --- | --- | --- | --- | --- | --- | --- |
| CC[C@@H](C(=O)[C@@H](C)[C@@H](O)[C@H](C)[C@@H]1O[C@@H]([C@@H](CC)C(=O)O)CC[C@@H]1C)[C@H]1O[C@]2(C=C[C@@H](NC(=O)OCC(F)F)[C@]3(CC[C@@](C)([C@H]4CC[C@](O)(CC)[C@H](C)O4)O3)O2)[C@H](C)C[C@@H]1C [FLC-00446-1•Na] | 189 | 37.9 | 262 | 26.8 | 50.8 | several times more potent compared to that of the parent compound | – | – | – | – | – | – | – | – | – | – | – | – | – | – | SI A2780Cis [1]: 294.5; IC50 ([1]; read-out: IC50 (nM) A2780Cis): 0.71 nM; SI Hs294T (Hs294T (human melanoma); Table 4): 1.1; SI PLC/PRF/5 ([2]; Table 4): 5.5; SI SNU-16 ([3]; Table 4): 0.8; SI MIA PaCa-2 ([4]; Table 4): 7.8; IC50 [5, 16]: 209 nM; SI MV4-11 [6]: 298.7; IC50 [6]: 0.7 nM; SI NCI-H358 [7]: 4.12 |
| CCCOC(=O)N[C@@H]1C=C[C@]2(O[C@H]([C@@H](CC)C(=O)[C@@H](C)[C@@H](O)[C@H](C)[C@@H]3O[C@@H]([C@@H](CC)C(=O)O)CC[C@@H]3C)[C@@H](C)C[C@H]2C)O[C@@]12CC[C@@](C)([C@H]1CC[C@](O)(CC)[C@H](C)O1)O2 [FLC-00424-1•Na] | 685 | 5.01 | 220 | 38.4 | 48.7 | several times more potent compared to that of the parent compound | – | – | – | – | – | – | – | – | – | – | – | – | – | – | – |
| CC[C@@H](C(=O)[C@@H](C)[C@@H](O)[C@H](C)[C@@H]1O[C@@H]([C@@H](CC)C(=O)O)CC[C@@H]1C)[C@H]1O[C@]2(C=C[C@@H](NC(=S)NCCCSC)[C@]3(CC[C@@](C)([C@H]4CC[C@](O)(CC)[C@H](C)O4)O3)O2)[C@H](C)C[C@@H]1C [FLC-00345-1] | – | – | – | – | – | several times more potent compared to that of the parent compound | 1.5 | 5.6 | 81.2 | 0.8 | 96.6 | 0.71 | 0.2 | 396 | 0.2 | 28 | 2.4 | 26 | 2.6 | 39.2 | IC50 [8, 17]: 46.5 nM; IC50 [9, 18]: 12.3 nM; IC50 [10, 19]: 0.84 nM; IC50 (A375 (human melanoma); [21]): 400 nM; KG-1 SI [11]: 1.7; IC50 [4, 25]: 111 nM; MIA PaCa-2 SI [4]: 0.6; IC50 [5, 26]: 68.4 nM |
| CC[C@@H](C(=O)[C@@H](C)[C@@H](O)[C@H](C)[C@@H]1O[C@@H]([C@@H](CC)C(=O)O)CC[C@@H]1C)[C@H]1O[C@]2(C=C[C@@H](NC(=S)Nc3ccc(C(F)(F)F)cc3)[C@]3(CC[C@@](C)([C@H]4CC[C@](O)(CC)[C@H](C)O4)O3)O2)[C@H](C)C[C@@H]1C [FLC-00347-1] | – | – | – | – | – | several times more potent compared to that of the parent compound | 13.3 | 16.1 | 79.0 | 0.3 | 264.7 | 0.28 | 0.8 | 103 | 0.7 | 5.87 | 12.5 | 13.5 | 5.4 | 14.1 | IC50 [8, 17]: 5.51 nM; IC50 [9, 18]: 4.54 nM; IC50 [10, 19]: 0.93 nM; IC50 (A375 (human melanoma); [21]): 91.2 nM; KG-1 SI [11]: 5.2; IC50 [4, 25]: 44.3 nM; MIA PaCa-2 SI [4]: 1.7; IC50 [5, 26]: 73.2 nM |
| CC[C@@H](C(=O)[C@@H](C)[C@@H](O)[C@H](C)[C@@H]1O[C@@H]([C@@H](CC)C(=O)O)CC[C@@H]1C)[C@H]1O[C@]2(C=C[C@@H](NC(=S)NCc3ccccc3)[C@]3(CC[C@@](C)([C@H]4CC[C@](O)(CC)[C@H](C)O4)O3)O2)[C@H](C)C[C@@H]1C [FLC-00346-1] | – | – | – | – | – | several times more potent compared to that of the parent compound | 1.1 | 2.7 | 96.4 | 0.2 | 487.1 | 0.14 | 0.2 | 388 | 0.2 | 5.8 | 11.9 | 4.52 | 15.2 | 20.9 | IC50 ([8]; NCI-H23, 72 h, read-out: NCI-H23 IC50 (nM)): 60.3 nM; IC50 ([9]; PFSK-1, 72 h, read-out: PFSK-1 IC50 (nM)): 25.1 nM; IC50 ([10]; A2780, 72 h, read-out: A2780 IC50 (nM)): 0.71 nM; IC50 (A375 (human melanoma); A-375, 72 h, read-out: A375 IC50 (nM)): 393 nM; KG-1 SI [11]: 3.3; IC50 [4, 25]: 43.3 nM; MIA PaCa-2 SI [4]: 1.6; IC50 [5, 26]: 68.8 nM |
| CC[C@@H](C(=O)[C@@H](C)[C@@H](O)[C@H](C)[C@@H]1O[C@@H]([C@@H](CC)C(=O)O)CC[C@@H]1C)[C@H]1O[C@]2(C=C[C@@H](NC(=O)C(=O)NCCc3ccccc3)[C@]3(CC[C@@](C)([C@H]4CC[C@](O)(CC)[C@H](C)O4)O3)O2)[C@H](C)C[C@@H]1C [FLC-00457-1•Na] | 2530 | 122 | 551 | 53.7 | 446 | several times more potent compared to that of the parent compound | – | – | – | – | – | – | – | – | – | – | – | – | – | – | SI A2780Cis [1]: 76.0; IC50 ([1]; read-out: IC50 (nM) A2780Cis): 9.66 nM; SI Hs294T (Hs294T (human melanoma); Table 4): 0.3; SI PLC/PRF/5 ([2]; Table 4): 6.0; SI SNU-16 ([3]; Table 4): 1.3; SI MIA PaCa-2 ([4]; Table 4): 13.7; IC50 [5, 16]: 734 nM; SI MV4-11 [6]: 40.7; IC50 [6]: 18 nM; SI NCI-H358 [7]: 1.65 |
